Source: patent US5270334A, “4-methoxy-5-methyl-pyran-3-ol natural products and derivatives thereof” (E. R. Squibb & Sons, Inc., priority 1992, dated 1993)

Key:
lanosterol demethylase = target: T1, lanosterol demethylase (Candida albicans, UniProt P10613); assay: inhibition of lanosterol demethylase, spectrophotometric carbon monoxide binding assay; settings: Candida albicans SGY677; read-out: concentration which gives 50% inhibition of carbon monoxide binding
T1 construct: endogenous in cells; host or cells: Candida albicans SGY677
Method: (§1) The inhibition of lanosterol demethylase was determined by two methods: the spectrophotometric carbon monoxide binding assay of Omura and Sato (J. Biol. Chem. 239:2370-2378, 1964) and by a radiolabeled metabolic assay.
Cells of Candida albicans, SGY677, were grown overnight without shaking at 30° C. in a medium consisting of yeast extract 1%, peptone 2%, glucose 2% and distilled water. Cells were harvested by centrifugation and resuspended in 0.65M mannitol to an optical density at 600 nm of 2.5. At this density 1 ml of cells was equal to 6.7 mg constant dry weight (105° C. for 18 hours).
Scopularin and its alcohol derivative of Example 4 were added to the enzyme and the inhibition of carbon monoxide binding determined over a range of inhibitor concentrations.

[1] = system: cytochrome P450 enzymes, such as lanosterol demethylase; assay: inhibition of cytochrome P450 enzymes (general statement); format: biochemical; settings: in words
[2] = target: T2, lanosterol demethylase of Candida albicans (Candida albicans, UniProt P10613); assay: inhibition of lanosterol demethylase, radiolabeled metabolic assay (14C-acetate, lanosterol accumulation); format: cell-based; settings: Candida albicans SC5314, 14C-acetate, 30°
T2 construct: 14C-acetate sterol labelling, TLC
Method: as §1
The ability of scopularin and its alcohol to inhibit the lanosterol demethylase of Candida albicans can also be visualized by a metabolic assay. Candida albicans, SC5314, was grown overnight at 30° with shaking in the same medium as that used above. Cells were harvested by centrifugation and resuspended in water to give an optical density of 0.3 at 660 nm. 750 μl of this cell suspension, 300 μl of a medium containing 0.35 g Difco yeast nitrogen base without amino acids, 1 g glucose and distilled water to 10 ml, 100 μl of test material and distilled water were combined to give a final volume of 1.425 ml. This was incubated for 15 minutes at 30° C. with shaking, then 3 μCi ^14 C-acetate was added and continued to incubate for 1 hour. Cells were harvested by centrifugation and extracted with 2×0.5 ml methanol; centrifuged, decanted supernate and repeated the extraction with […] methanol-benzene (1:1). Centrifuged, decanted; combined supernates, dried and resuspended in 100 μl chloroform-methanol (1:1). The aliquots were spotted onto silica gel 60 (Merck) plates and developed chromatographically in a solvent containing dichloromethane-acetone (60:1). […]

yeasts and fungi = assay: activity against a variety of yeasts and fungi (general statement); format: cell-based; settings: in words

T2 sequence (P10613 whole entry): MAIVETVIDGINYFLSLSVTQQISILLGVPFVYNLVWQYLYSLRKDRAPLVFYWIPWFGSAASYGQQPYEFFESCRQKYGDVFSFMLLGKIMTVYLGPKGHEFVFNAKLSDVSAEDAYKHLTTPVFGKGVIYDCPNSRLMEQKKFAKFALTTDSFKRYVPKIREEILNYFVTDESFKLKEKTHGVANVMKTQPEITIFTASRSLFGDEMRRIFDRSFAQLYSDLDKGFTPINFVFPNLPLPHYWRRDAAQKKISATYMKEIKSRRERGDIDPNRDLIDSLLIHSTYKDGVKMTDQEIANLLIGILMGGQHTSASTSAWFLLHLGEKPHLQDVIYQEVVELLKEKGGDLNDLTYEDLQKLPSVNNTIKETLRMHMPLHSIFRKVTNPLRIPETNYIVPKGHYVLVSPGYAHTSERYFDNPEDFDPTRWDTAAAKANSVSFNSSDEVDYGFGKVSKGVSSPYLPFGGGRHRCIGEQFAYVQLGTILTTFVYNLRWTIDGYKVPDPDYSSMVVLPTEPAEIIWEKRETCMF
T1 sequence (P10613 whole entry): as above

SMILES | IC50 (lanosterol demethylase) | inhibition of cytochrome P450 enzymes, such as lanosterol demethylase [1] | concentration causing accumulation of lanosterol, consistent with inhibition of lanosterol demethylase [2] | activity against a variety of yeasts and fungi (yeasts and fungi)
CCC/C=C/C=C/C=C(\C)[C@H]1OC[C@@H](C)[C@@H](OC)[C@@H]1O (relative stereo) [Example 4] | 14 µM | inhibitor | 1.4×10^-6 | 
C/C=C/C=C/C=C(\C)[C@@H]1OC[C@H](C)[C@H](OC)[C@H]1OC(=O)CN[C@@H]1O[C@H](CO)[C@@H](O)[C@H](O)[C@H]1O [Ic] |  | inhibit |  | has activity
